Here are results for 30 compounds from paper PMC9501369, “Evaluation of Novel Inhibitors of Tryptophan Dioxygenases for Enzyme and Species Selectivity Using Engineered Tumour Cell Lines Expressing Either Murine or Human IDO1 or TDO2” (Pharmaceuticals, 2022).

Data set [1] addresses T1, human IDO1 (Homo sapiens, UniProt P14902). The experiment in a line: LLTC-hIDO1 cell-based assay (kynurenine in supernatant). Details: host or cells: murine LLTC Lewis lung carcinoma cells. The following applies: for IC50: LLTC-hIDO1 cells, read-out: IC50 (µM) LLTC-hIDO1. From the text:
(§1) Transfected LLTC cells constitutively expressing human IDO1 (LLTC-hIDO1) were established as previously described, by transfecting wild-type LLTC cells with pAd/CMV/V5-DEST with cDNA for human IDO1 (Invitrogen, Carlsbad, CA, USA). LLTC-mIDO1 cells that constitutive express murine IDO1 were established by transfection of wild-type LLTC with cDNA for murine IDO1 (courtesy of Dr Benoit van den Eynde). GL261 cells were similarly transfected to produce a line constitutively expressing human IDO1 (GL261-hIDO1), and a GL261-hTDO2 line expressing the human TDO2 gene (Source BioScience, Nottingham, England). Stable transfectants were maintained in αMEM with 10% FCS and selection antibiotics (2 µM puromycin for lines transfected with human dioxygenase genes, or 5 µg/mL blastocidin for LLTC-mIDO1 cells).
(§2) For the cell-based assays with engineered TDO2-expressing lines (10^4 cells per well), the α-MEM culture media was additionally supplemented with […] L-tryptophan. In brief, cells were cultured 24 h with the test compounds, and then supernatants from each well were transferred into fresh, flat-bottomed 96-well plates, mixed with trichloroacetic acid (10% final concentration) and incubated for 20 min, at 60 °C. Plates were centrifuged and supernatants transferred and mixed 1:1 with 4-(dimethylamino)benzaldehyde and the absorbance read at 480 nm as previously described. The inhibition of cellular enzyme activity at each drug concentration was calculated as a percent of control wells with no added drug.

A further data set addresses T2, murine IDO1 (Mus musculus, UniProt P28776).
T2 construct: expressed in transfected cells; host or cells: murine LLTC Lewis lung carcinoma cells
As to the kind of experiment: LLTC-mIDO1 cell-based assay (kynurenine in supernatant). As to conditions: for IC50: Table 1, LLTC-mIDO1 cells, 24 h culture with compound, read-out: IC50 (µM) LLTC-mIDO1.
Excerpt: as §1, §2

A further data set has as its target T3, human TDO2 (Homo sapiens, UniProt P48775).
T3 construct: host or cells: murine GL261 glioma cells
The experiment in a line: GL261-hTDO2 cell-based assay (kynurenine in supernatant). The following applies: Table 2; for IC50 Ratio hTDO2/hIDO1: GL261-hTDO2 IC50 / LLTC-hIDO1 IC50, ^−1 marks inverse ratio; for IC50: GL261-hTDO2 cells. As for the experimental part: Each compound was tested in cell-based assays using LLTC-hIDO1 and GL261-hTDO2, respectively, for their potency at inhibiting human IDO1 and human TDO2.
as §1, §2

The target in data set [2] is T1, human IDO1. The experiment in a line: cell-free recombinant hIDO1 enzymatic assay. As to conditions: Figure 4, read-out: IC50 (enzyme assay). The data set is classed as biochemical.
Data set [3] deals with GL261-hIDO1 tumours. The experiment in a line: Growth of subcutaneous GL261-hIDO1 tumours under daily ip treatment. The data set is classed as in vivo. The following applies: daily ip 75, 100 and 150 mg/kg, C57Bl/6 mice.
Protocol: C57Bl/6 mice bred at the Vernon Jansen Unit, University of Auckland were used as the hosts for the growth of GL261 and LLTC tumours. Unless stated, first-generation tumours, initiated by injecting 10^6 cells in 100 µL medium subcutaneously into the left flank of each mouse were used for experiments. […] Tumours were measured thrice weekly, and tumour volumes were calculated as 0.52a^2b, where a and b are the minor and major axes of the tumour.
C57Bl/6 mice were inoculated subcutaneously into the left flank with 10^6 GL261-hIDO1 cells and were randomised into treatment groups 6 days after inoculation when the tumours were approximately 3 × 3 mm in size. Mice with tumours were treated daily with ip injection of the inhibitor at a tolerated non-toxic dose, dissolved to the required concentration in 50 µL DMSO per mouse. Control groups received only DMSO (≤50 µL).
Data set [4] relates to GL261-hIDO1 tumours. As to the kind of experiment: K:T ratios in plasma and tumour of mice with GL261-hIDO1 tumours after single ip dose. The data set is classed as in vivo, C57Bl/6 mice. As to conditions: single ip 150 mg/kg. As for the experimental part: C57Bl/6 mice were inoculated subcutaneously with 10^6 GL261-WT or GL261-hIDO1 cells in […] PBS into the left flank. […] In brief, 100µL of each plasma sample was mixed with 100µL of potassium phosphate buffer (0.05 M, pH 6) containing 100µM of the internal standard, 3-Nitro-L-Tyrosine (Sigma-Aldred, St Louis, MO, USA). Twenty-five µL of 2 mol/L trichloroacetic acid (Merck) was added to precipitate the proteins, and the samples were then vortexed and centrifuged at 12,000× g for 6 min, at room temperature. Standard calibration curves made from serial dilution of tryptophan (Sigma) and L-kynurenine (Sigma) were prepared with the same treatment as the samples. All supernatants collected after centrifugation were transferred into micro sampling vials and analysed for kynurenine and tryptophan as previously described by HPLC (HP Agilent 1200, Agilent Technologies, Walbronn, Germany). Kynurenine and tryptophan concentrations in samples were calculated from the standard calibration curves and the kynurenine to tryptophan ratio (K:T) was calculated by dividing the concentration of kynurenine by the tryptophan concentration.

Another data set can be described thus: in vivo. The following applies: C57Bl/6, mouse, ip.
The mark [5] stands for this setting: Table 1, 24 h culture with compound.
Setting [6] is: mice with 16-day GL261-hIDO1 tumours.
[7] abbreviates: LLTC-hIDO1 cell assay vs recombinant hIDO1 enzymatic assay.

pIC50: −log10 of the molar value. Where two headings read alike, the source gives them in different places.

T1 sequence (P14902 whole entry): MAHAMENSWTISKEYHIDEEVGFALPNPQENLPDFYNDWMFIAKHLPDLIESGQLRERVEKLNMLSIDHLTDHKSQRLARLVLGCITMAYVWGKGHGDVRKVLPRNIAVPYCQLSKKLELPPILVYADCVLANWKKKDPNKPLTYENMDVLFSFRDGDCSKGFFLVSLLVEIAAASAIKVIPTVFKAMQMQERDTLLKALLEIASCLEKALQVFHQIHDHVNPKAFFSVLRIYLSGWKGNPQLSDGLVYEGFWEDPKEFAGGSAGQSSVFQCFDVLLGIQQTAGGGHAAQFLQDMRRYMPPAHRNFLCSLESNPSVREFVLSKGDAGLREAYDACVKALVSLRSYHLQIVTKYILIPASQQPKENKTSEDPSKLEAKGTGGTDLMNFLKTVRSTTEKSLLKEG
T3 sequence (P48775 whole entry): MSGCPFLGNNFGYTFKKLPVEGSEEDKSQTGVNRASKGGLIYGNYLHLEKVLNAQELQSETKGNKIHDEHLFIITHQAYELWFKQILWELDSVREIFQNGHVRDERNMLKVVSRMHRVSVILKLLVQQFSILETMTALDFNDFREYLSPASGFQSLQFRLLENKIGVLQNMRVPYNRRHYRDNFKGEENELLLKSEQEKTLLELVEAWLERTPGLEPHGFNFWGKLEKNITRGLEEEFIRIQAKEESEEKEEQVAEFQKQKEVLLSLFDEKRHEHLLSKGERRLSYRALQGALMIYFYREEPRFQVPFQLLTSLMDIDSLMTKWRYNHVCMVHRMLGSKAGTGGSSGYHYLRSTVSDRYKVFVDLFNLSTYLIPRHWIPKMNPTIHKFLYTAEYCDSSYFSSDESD
T2 sequence (P28776 whole entry): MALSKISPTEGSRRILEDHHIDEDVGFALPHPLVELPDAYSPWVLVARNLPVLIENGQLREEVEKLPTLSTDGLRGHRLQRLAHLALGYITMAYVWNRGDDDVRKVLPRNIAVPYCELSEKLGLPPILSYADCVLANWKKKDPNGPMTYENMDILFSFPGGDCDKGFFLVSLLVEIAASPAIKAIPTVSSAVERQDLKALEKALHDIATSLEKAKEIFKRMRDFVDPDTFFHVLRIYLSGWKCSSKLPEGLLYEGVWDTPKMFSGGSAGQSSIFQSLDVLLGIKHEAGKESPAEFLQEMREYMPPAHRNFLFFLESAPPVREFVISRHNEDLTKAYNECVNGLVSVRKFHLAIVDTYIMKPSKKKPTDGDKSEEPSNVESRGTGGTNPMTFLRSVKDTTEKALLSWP

Broadly, the IC50 is the point on the concentration scale where inhibition reaches its midpoint. As for `N#Cc1c(NC(=O)c2ccccc2)sc(N)c1-c1cccs1` [Compound W-0003891], the results for the IC50 on human IDO1 [1] (setting [5]) and on murine IDO1 were 2.56 µM and 22.5 µM, respectively.
`Cc1ccc(N/N=C2/CCCNC2=O)cc1` [Compound W-0011320]: the values for the IC50 at human IDO1 [1] (setting [5]) and at murine IDO1 were 17.9 µM and 11.3 µM, respectively.
For the compound `O=C(O)c1coc2c1C(=NNc1ccccc1)CCC2` [Compound W-0011387], the IC50 stood at 3.19 µM at human IDO1 [1] (setting [5]) and 1.32 µM on murine IDO1.
Take `NC(=O)SCC(=O)Nc1ccc(F)cc1` [Compound W-0013201]: the values for the IC50 on human IDO1 [1] (setting [5]) and at murine IDO1 were 20.1 µM and 20 µM, respectively.
Broadly, the pIC50 is −log10 of the IC50, conventionally taken in molar units. `Cc1nc2onc(N)c2c(C)c1Cl` [Compound W-0019482]: on human TDO2, the “IC50 Ratio hTDO2/hIDO1” value was found to be 169. The IC50 on human TDO2 was determined as 15.2 µM; at human IDO1 [1] (setting [5]), 0.08 µM; at human IDO1 [1] (Table 2), 0.09 µM; at murine IDO1 it was 0.01 µM. Also, the pIC50 at human IDO1 [2] was 5.73; on human IDO1 [1] (Figure 4, LLTC-hIDO1 cell-based assay, read-out: IC50 (cell assay)), 7.18. For the same compound, in the data set on GL261-hIDO1 tumours [3], the “growth of subcutaneous GL261-hIDO1 tumours” value is “delayed the growth”. Also, the “K:T ratio in the tumour, returned to % of that in mice without treatment” value with GL261-hIDO1 tumours [4] (GL261-hIDO1 tumours, time point not given) is reported as “approximately 50%”. For the same compound, the “K:T ratio in plasma” value in the data set with GL261-hIDO1 tumours [4] (setting [6]) is “reduced within an hour”. The “K:T ratio in tumour” value in the data set with GL261-hIDO1 tumours [4] (setting [6]) is reported as “reduced within an hour”. Also, at human IDO1 [1] (setting [7]), the “fold more potent in the cell-based assay compared to activity against the enzyme” value came to 30 fold. In addition, the MTD in “in vivo” was found to be 150 mg/kg.
`c1ccc2c(c1)Nc1ccccc1O2` [Compound W-0020227]: the pIC50 at human IDO1 [1] is 5.82; at murine IDO1, 5.51.
As for `CCn1cc(-c2c(N)sc(NC(=O)c3ccccc3)c2C#N)c(C)n1` [Compound W-0020339], the IC50 on human IDO1 [1] (setting [5]) was 11.6 µM; at murine IDO1, 50.5 µM.
With `C/C(=N\Nc1ccc(F)cc1F)c1cccs1` [Compound W-0079326], the figures for the IC50 at human IDO1 [1] (setting [5]) and on murine IDO1 were 10.1 µM and 13.1 µM, respectively.
`C/C(=N\Nc1ccc(C)c(Cl)c1)c1ccncc1` [Compound W-0079341]: the IC50 is 17.1 µM on human IDO1 [1] (setting [5]) and 10.3 µM on murine IDO1.
In the case of `C/C(=N\Nc1ccc(F)cc1F)c1cc2ccccc2o1` [Compound W-0079399], the IC50 on human IDO1 [1] (setting [5]) was 41.2 µM; at murine IDO1, 25 µM.
`C/C(=N\Nc1ccc(F)cc1F)c1ccc(N2CCOCC2)cc1` [Compound W-0079400]: the IC50 at human IDO1 [1] (setting [5]) is 20.8 µM; on murine IDO1, 12.9 µM.
In the case of `CC(C)N1CCC(=NNc2ccc(Cl)c(Cl)c2)CC1` [Compound W-0079407], the IC50 at human IDO1 [1] (setting [5]) is 3.39 µM; on murine IDO1, 1.87 µM.
Take `COc1cc(/C(C)=N/Nc2ccc(Cl)c(Cl)c2)cc(OC)c1OC` [Compound W-0079409]: the IC50 on human IDO1 [1] (setting [5]) was 6.74 µM; at murine IDO1 it was 16 µM.
Regarding `CC1=C/C(=N\Nc2ccccc2Cl)CC1` [Compound W-0079433], the IC50 on human IDO1 [1] (setting [5]) came out at 5.33 µM; at murine IDO1, 13.3 µM.
In the case of `Fc1ccc(N/N=C/c2sc(N3CCOCC3)nc2-c2ccccc2)cc1` [Compound W-0079497], the IC50 at human IDO1 [1] (setting [5]) stood at 3.45 µM; on murine IDO1, 3.03 µM.
For `Cc1ccc(C)c(C2=Nn3c(COc4ccccc4F)nnc3SC2C)c1` (stereo not drawn) [Compound W-0080549], in that order: 31.6 µM and 70.7 µM.
Regarding `Fc1ccc(N/N=C2/CCCc3ccccc32)c(F)c1` [Compound W-0125931], the IC50 at human IDO1 [1] (setting [5]) worked out at 6.04 µM; on murine IDO1, 5.83 µM.
`Nc1nonc1/C(=N\O)Nc1ccc(F)c(Cl)c1` [INCB14934, reference compound]: the IC50 on human TDO2 is 6.08 µM. Moreover, at human IDO1 [1] (setting [7]), the “titration curve in the cell-assay compared to that in the enzymatic assay” value is “very similar”. The same compound showed a pIC50 on murine IDO1 of 6.92.
Regarding `Nc1noc2ncc(Br)cc12` [SN36458], the values for the IC50 against human TDO2 and at human IDO1 [1] (Table 2) were 0.08 µM and 0.66 µM, respectively.
For `Cc1nc2onc(N)c2c(C)c1Br` [SN36494], on human TDO2, the “IC50 Ratio hTDO2/hIDO1” value is listed as 47 and inhibition was half-maximal at 14.1 µM (IC50). The IC50 at human IDO1 [1] (Table 2) stood at 0.3 µM.
As for `Nc1noc2ncc(Cl)cc12` [SN36499], the results for the half-maximal inhibitory concentration (IC50) against human TDO2 and on human IDO1 [1] (Table 2) were 0.11 µM and 0.7 µM, respectively.
Consider `Nc1noc2nc3ccccc3cc12` [SN36500], for which the values for the IC50 at human TDO2 and at human IDO1 [1] (Table 2) were 1.58 µM and 2.11 µM, respectively.
Turning to `Nc1noc2ncncc12` [SN36704], the IC50 came to 1.07 µM on human TDO2 and 8.67 µM on human IDO1 [1] (Table 2).
Regarding `Nc1noc2nc(-c3ccccc3)ccc12` [SN36796], at human TDO2, the “IC50 Ratio hTDO2/hIDO1” value stood at 8 and the IC50 came to 37 µM. Also, at human IDO1 [1] (Table 2), the IC50 is 4.38 µM.
With `Nc1noc2ncc(I)cc12` [SN36896], the IC50 at human TDO2 was determined as 0.11 µM; on human IDO1 [1] (Table 2), 0.64 µM.
Take `COc1ccc2c(N)noc2n1` [SN37057]: on human TDO2, the “IC50 Ratio hTDO2/hIDO1” value is listed as 1.2 and the IC50 worked out at 10.7 µM. The IC50 on human IDO1 [1] (Table 2) turned out to be 8.88 µM.
Turning to `Nc1noc2nc(C(F)(F)F)ccc12` [SN37159], at human TDO2, the “IC50 Ratio hTDO2/hIDO1” value worked out at 1.6 and the 50% inhibitory concentration (IC50) came out at 1.81 µM. Moreover, at human IDO1 [1] (Table 2), the IC50 came to 1.14 µM.
As for `Cc1cc(Cl)nc2onc(N)c12` [SN37313], on human TDO2, the “IC50 Ratio hTDO2/hIDO1” value is given as 67 and the IC50 was 4.14 µM. The IC50 on human IDO1 [1] (Table 2) was 0.06 µM.
As to `Nc1noc2ncc([N+](=O)[O-])cc12` [SN37318], the IC50 stood at 0.68 µM against human TDO2 and 0.92 µM on human IDO1 [1] (Table 2).
On to `Cc1nc2onc(NC(=O)Nc3ccccc3)c2c(C)c1Cl` [SN37705], for which, on human TDO2, the “IC50 Ratio hTDO2/hIDO1” value came out at 85. Moreover, the IC50 at human TDO2 stood at 175 µM; on human IDO1 [1] (Table 2), 2.06 µM.
